Reference: patent publication US10881656B2, “HIF inhibitors and use thereof” (The General Hospital Corporation, priority 2008, dated 2021)

How the values were obtained:
[1] = molecular target: T1, IRP2 binding to Ferritin-L IRE (Homo sapiens, UniProt P48200); assay: Electrophoretic mobility shift assay, Ferritin L IRE probe; conditions: 786-O lysates, EMSA
T1 construct: when expressed in endogenous levels; endogenous in cells; host or cells: 786-O
Description: EMSAs were performed as described previously (Fillebeen et al., 2003). Briefly, 50 μg lysate from 786-O cells treated with medium only, DMSO, or compounds were incubated with 25,000 cpm wild-type or mutant radiolabeled HIF-2a IRE probe for 20 minutes at room temperature before loading onto non-denaturing acrylamide gels. Supershifts were performed identically, save that 0.2 μg control, IRP1 or IRP2 antibodies were also added. Total protein content was estimated by Bradford Assay (BioRad, 500-0006), and even loading for all experiments was confirmed by Western blot for B-Actin.
Inventors discovered that compound 76 increased the residual amount of IRP1 bound to the HIF-2a IRE in hypoxia, although not to the same extent as that observed in normoxic cells. […] Lastly, to further investigate the involvement of IRP2 in HIF-2a IRE, the inventors compared side by side IRP2 binding to HIF-2a and Ferritin-L IRE in 786-O cells, in conditions of normoxia or hypoxia and after treatment with compound 76 or DFO (FIG. 7E). While IRP2 binding was clearly detected on Ferritin IRE, the inventors were not able to detect measurable IRP2 binding on HIF-2a IRE.

[2] = test system: 7SV (SV40-luciferase) cells; assay: SV40-luciferase control reporter assay in 786-O derived 7SV cells; assay type: cell-based, human; conditions: 48 hours
Description: (§1) The screen for small molecule inhibitors was performed in the Institute for Chemical and Cellular biology, Harvard Medical School. 7SV or 7H4 cells were plated onto 384-well plates. The next day compounds were added robotically to the medium, to a final concentration of approximately 10 μM. 24 hours later, media was aspirated and Passive Lysis Buffer (Promega) and Luciferase Assay Reagent II (Promega) were added. Luciferase activity was measured with an Analyst plate reader (LJL Biosystems). All experiments were performed in duplicate and the identity of lead compounds was confirmed by mass spectroscopy
(§2) Luciferase assays were performed using the Promega's Dual-luciferase Assay Reporter System (Promega, E1910) according to the manufacturer's instructions. Counts obtained from transient transfections were normalized for co-transfected Renilla luciferase. Stable clones were normalized to medium only treated wells.
Functionally validated HRE and control SV40 luciferase reporter constructs were stably introduced into VHL-deficient 786-O cells to generate 7H4 and 7SV lines, respectively (see FIG. 8A). […]
To validate the connectivity map-derived prediction that PGJ2 is involved in HIF signaling, the inventors treated HRE-luciferase expressing 786-O cells (7H4) and SV40-luciferase expressing control cells (7SV) with increasing doses of PGJ2. […] Luciferase activity was measured at 48 hours.

[3] = test system: IRP1; assay: IRP1 expression in treated cells; assay type: cell-based, human
From the text: The inventors next tested the effect of hypoxia on the binding of IRP1 to the HIF-2a wild-type IRE. […] This is due to decreased mRNA binding, as western blots confirm that neither compound application nor hypoxia affects IRP1 protein expression. The involvement of IRP1 was further confirmed with super-shifting experiments with IRP1 antibody (FIG. 7C). No supershifted bands were observed using IRP2 antibody.
(§3) However, IRP2 contributes very little—if at all—to the total IRP bound to the HIF2a IRE (Zimmer et al., 2008).

[4] = test system: HIF-2a (HRE-luciferase, 7H4 cells); assay: HRE-luciferase reporter assay in 786-O derived 7H4 cells; assay type: cell-based, human
Description: as §1, §2
Functionally validated HRE and control SV40 luciferase reporter constructs were stably introduced into VHL-deficient 786-O cells to generate 7H4 and 7SV lines, respectively (see FIG. 8A). These lines were used to screen five commercial small molecule libraries (NCI Diversity Set, Chembridge, Maybridge, CEREP and Peakdale) and the ICCB Diversity-Oriented Synthesis (DOS) Diversity Set 2 (DDS2) and serine-derived peptidomimetic (SDP1) collections, totaling 58,000 compounds.
786-O cells were untreated (M, for medium only), mock-treated (D, for DMSO) or treated with compounds for two days before assaying for normalized luciferase activity. The resulting dose response curves are shown along with the compound structures in FIGS. 1A-1H).
To validate the connectivity map-derived prediction that PGJ2 is involved in HIF signaling, the inventors treated HRE-luciferase expressing 786-O cells (7H4) and SV40-luciferase expressing control cells (7SV) with increasing doses of PGJ2.

[5] = test system: HIF-2a; assay: Western blot for HIF-2a protein expression; assay type: cell-based, human; conditions: A498 and UMRC2 cells
[6] = test system: IRP2; assay: IRP2 expression in treated cells; assay type: cell-based, human
From the text: as §3

T1 sequence (P48200 whole entry): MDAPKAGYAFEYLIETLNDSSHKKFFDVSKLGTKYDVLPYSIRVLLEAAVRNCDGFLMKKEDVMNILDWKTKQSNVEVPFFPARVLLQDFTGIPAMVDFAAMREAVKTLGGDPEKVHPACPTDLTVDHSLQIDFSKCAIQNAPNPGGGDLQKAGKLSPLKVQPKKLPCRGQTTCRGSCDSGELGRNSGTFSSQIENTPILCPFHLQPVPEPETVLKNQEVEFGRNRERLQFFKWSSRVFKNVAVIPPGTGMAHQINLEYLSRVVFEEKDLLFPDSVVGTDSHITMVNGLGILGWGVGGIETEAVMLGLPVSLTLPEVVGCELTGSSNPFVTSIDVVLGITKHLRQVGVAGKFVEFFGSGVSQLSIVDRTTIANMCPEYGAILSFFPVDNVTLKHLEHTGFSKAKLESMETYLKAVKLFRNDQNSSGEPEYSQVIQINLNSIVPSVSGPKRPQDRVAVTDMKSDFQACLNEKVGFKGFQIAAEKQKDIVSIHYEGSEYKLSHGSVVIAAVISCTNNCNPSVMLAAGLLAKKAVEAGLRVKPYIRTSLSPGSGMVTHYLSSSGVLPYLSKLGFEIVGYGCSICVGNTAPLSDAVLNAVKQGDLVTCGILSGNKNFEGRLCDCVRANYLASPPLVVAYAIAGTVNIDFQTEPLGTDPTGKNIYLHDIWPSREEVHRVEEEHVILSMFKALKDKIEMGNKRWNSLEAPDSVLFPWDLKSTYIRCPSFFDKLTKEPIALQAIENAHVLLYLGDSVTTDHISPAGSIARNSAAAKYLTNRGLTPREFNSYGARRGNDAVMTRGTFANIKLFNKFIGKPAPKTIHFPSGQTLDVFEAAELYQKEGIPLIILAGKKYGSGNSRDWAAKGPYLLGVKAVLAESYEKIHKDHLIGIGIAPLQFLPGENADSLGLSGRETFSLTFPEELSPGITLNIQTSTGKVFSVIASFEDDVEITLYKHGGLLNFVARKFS

Row | SMILES | binding of IRP2 to Ferritin-L IRE [1] | SV40-driven luciferase activity [2] | IRP1 expression [3] | IC50 ([4]; 7H4 cells, luciferase measured at 48 hours, read-out: IC50app, HRE-driven luciferase activity) | HIF2a activity at various ambient oxygen concentrations ([4]; HRE-luciferase 786-O cells, 48 hours) | HIF2a protein expression in other VHL-deficient renal cell carcinoma lines [5] | IRP2 expression [6]
1 | COC(=O)c1sccc1N/N=C(/C#N)S(C)(=O)=O [Compound 76, methyl 3-{2-[cyano(methylsulfonyl)methylene] hydrazino}thiophene-2-carboxylate] | slightly enhanced |  |  |  |  |  | 
2 | CCCCC/C=C/C=C1/C(=O)C=C[C@@H]1C/C=C\CCCC(=O)O [PGJ2, 15-deoxy-Δ^12,14-prostaglandin J2] |  | not affected | not affected | 5 µM | has the ability to repress HIF2a activity at a wide range of oxygen concentrations | decreased HIF2a protein expression | minimally increased
